Several values for one entry are separate records, joined by “and”; a condition that tells them apart may be missing. Identical values can stand only once. Inconclusive results and toxic doses are left out.
Tested on: BDF1 mice, P388 leukemia ip, median survival T/C
Assay: NCI In Vivo Anticancer Drug Screen. Data for tumor model P388 Leukemia (intraperitoneal) in B6D2F1 (BDF1) mice
Conditions: endpoint: median survival time, higher = longer survival
Procedure, shortened: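 Reported as T/C, where T is the survival measurement in dosed animals and C the same measurement in vehicle controls.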

## COc1cc2cc3c4cc(OC)c(OC)cc4cc[n+]3c(C)c2cc1OC (tested in a mixture with another compound)
dose: 8.0 mg/kg/injection, schedule: Q01DX008 (ip), vehicle: other
  T/C: 156 % of control
dose: 8.0 mg/kg/injection, schedule: Q01DX009 (ip), vehicle: clinical formulation
  T/C: 155 % of control
dose: 8.0 mg/kg/injection, schedule: Q03HX008 (ip), vehicle: other
  T/C: 111 % of control
dose: 9.3 mg/kg/injection, schedule: Q01DX009 (ip), vehicle: saline
  T/C: 150 % of control
dose: 12.5 mg/kg/injection, schedule: Q04DX003 (ip), vehicle: other
  T/C: 121 % of control
dose: 16.0 mg/kg/injection, schedule: Q01DX008 (ip), vehicle: other
  T/C: 154 % of control
dose: 16.0 mg/kg/injection, schedule: Q01DX008 (ip), vehicle: water
  T/C: 163 % of control
dose: 16.0 mg/kg/injection, schedule: Q01DX009 (ip), vehicle: Klucel (hydroxypropylcellulose) (HPC)
  T/C: 157 % of control
dose: 16.0 mg/kg/injection, schedule: Q01DX009 (ip), vehicle: clinical formulation
  T/C: 161 % of control
dose: 16.0 mg/kg/injection, schedule: Q01DX009 (oral), vehicle: other
  T/C: 94 % of control
dose: 16.0 mg/kg/injection, schedule: Q01DX009 (sc), vehicle: other
  T/C: 101 % of control
dose: 16.0 mg/kg/injection, schedule: Q03HX016 (ip), vehicle: other
  T/C: 153 % of control
dose: 16.0 mg/kg/injection, schedule: Q03HX024 (ip), vehicle: other
  T/C: 174 % of control
dose: 32.0 mg/kg/injection, schedule: Q01DX008 (ip), vehicle: Klucel (hydroxypropylcellulose) (HPC)
  T/C: 182 % of control
dose: 32.0 mg/kg/injection, schedule: Q01DX008 (ip), vehicle: other
  T/C: 167 % of control
dose: 32.0 mg/kg/injection, schedule: Q01DX008 (ip), vehicle: water
  T/C: 163 % of control
dose: 32.0 mg/kg/injection, schedule: Q01DX009 (ip), vehicle: Klucel (hydroxypropylcellulose) (HPC)
  T/C: 186 % of control
dose: 32.0 mg/kg/injection, schedule: Q01DX009 (ip), vehicle: clinical formulation
  T/C: 211 % of control
dose: 32.0 mg/kg/injection, schedule: Q01DX009 (oral), vehicle: other
  T/C: 103 % of control
dose: 32.0 mg/kg/injection, schedule: Q01DX009 (sc), vehicle: other
  T/C: 115 % of control
dose: 32.0 mg/kg/injection, schedule: Q03HX016 (ip), vehicle: other
  T/C: 182 % of control
dose: 32.0 mg/kg/injection, schedule: Q03HX024 (ip), vehicle: other
  T/C: 190 % of control
dose: 37.5 mg/kg/injection, schedule: Q01DX009 (ip), vehicle: saline
  T/C: 175 % of control
dose: 37.5 mg/kg/injection, schedule: Q04DX003 (ip), vehicle: saline
  T/C: 162 % of control
dose: 46.7 mg/kg/injection, schedule: Q04DX003 (ip), vehicle: alkali diluted with saline
  T/C: 165 % of control
dose: 50.0 mg/kg/injection, schedule: Q04DX002 (ip), vehicle: saline
  T/C: 154 % of control
dose: 50.0 mg/kg/injection, schedule: Q04DX003 (ip), vehicle: saline
  T/C: 157 % of control
dose: 50.0 mg/kg/injection, schedule: Q04DX003 (ip), vehicle: water
  T/C: 158 % of control
dose: 64.0 mg/kg/injection, schedule: Q01DX001 (ip), vehicle: other
  T/C: 120 % of control
dose: 64.0 mg/kg/injection, schedule: Q01DX001 (oral), vehicle: other
  T/C: 100 % of control
dose: 64.0 mg/kg/injection, schedule: Q01DX001 (sc), vehicle: other
  T/C: 103 % of control
dose: 64.0 mg/kg/injection, schedule: Q01DX008 (ip), vehicle: Klucel (hydroxypropylcellulose) (HPC)
  T/C: 208 % of control
dose: 64.0 mg/kg/injection, schedule: Q01DX008 (ip), vehicle: other
  T/C: 206 % of control
dose: 64.0 mg/kg/injection, schedule: Q01DX008 (ip), vehicle: water
  T/C: 185 % of control
dose: 64.0 mg/kg/injection, schedule: Q01DX009 (ip), vehicle: Klucel (hydroxypropylcellulose) (HPC)
  T/C: 182 % of control and 203 % of control
dose: 64.0 mg/kg/injection, schedule: Q01DX009 (ip), vehicle: clinical formulation
  T/C: 194 % of control
dose: 64.0 mg/kg/injection, schedule: Q01DX009 (oral), vehicle: other
  T/C: 107 % of control
dose: 64.0 mg/kg/injection, schedule: Q04DX003 (ip), vehicle: other
  T/C: 161 % of control and 163 % of control
dose: 64.0 mg/kg/injection, schedule: Q04DX003 (ip), vehicle: water
  T/C: 159 % of control
dose: 75.0 mg/kg/injection, schedule: Q01DX001 (ip), vehicle: saline
  T/C: 154 % of control
dose: 75.0 mg/kg/injection, schedule: Q01DX009 (ip), vehicle: saline
  T/C: 183 % of control
dose: 75.0 mg/kg/injection, schedule: Q04DX003 (ip), vehicle: saline
  T/C: 158 % of control
dose: 77.8 mg/kg/injection, schedule: Q04DX003 (ip), vehicle: alkali diluted with saline
  T/C: 165 % of control
dose: 86.4 mg/kg/injection, schedule: Q04DX003 (ip), vehicle: other
  T/C: 193 % of control
dose: 100.0 mg/kg/injection, schedule: Q04DX002 (ip), vehicle: saline
  T/C: 154 % of control and 169 % of control
dose: 100.0 mg/kg/injection, schedule: Q04DX003 (ip), vehicle: other
  T/C: 155 % of control
dose: 100.0 mg/kg/injection, schedule: Q04DX003 (ip), vehicle: water
  T/C: 200 % of control
dose: 128.0 mg/kg/injection, schedule: Q01DX001 (oral), vehicle: other
  T/C: 98 % of control
dose: 128.0 mg/kg/injection, schedule: Q01DX001 (sc), vehicle: other
  T/C: 100 % of control
dose: 128.0 mg/kg/injection, schedule: Q01DX008 (ip), vehicle: other
  T/C: 156 % of control
dose: 128.0 mg/kg/injection, schedule: Q01DX009 (ip), vehicle: Klucel (hydroxypropylcellulose) (HPC)
  T/C: 186 % of control
dose: 128.0 mg/kg/injection, schedule: Q01DX009 (oral), vehicle: other
  T/C: 103 % of control
dose: 128.0 mg/kg/injection, schedule: Q01DX009 (sc), vehicle: other
  T/C: 159 % of control
dose: 128.0 mg/kg/injection, schedule: Q04DX003 (ip), vehicle: Klucel (hydroxypropylcellulose) (HPC)
  T/C: 156 % of control
dose: 128.0 mg/kg/injection, schedule: Q04DX003 (ip), vehicle: other
  T/C: 167 % of control and 175 % of control
dose: 128.0 mg/kg/injection, schedule: Q08DX002 (ip), vehicle: other
  T/C: 155 % of control
dose: 130.0 mg/kg/injection, schedule: Q04DX003 (ip), vehicle: alkali diluted with saline
  T/C: 180 % of control
dose: 144.0 mg/kg/injection, schedule: Q04DX003 (ip), vehicle: other
  T/C: 207 % of control
dose: 150.0 mg/kg/injection, schedule: Q01DX001 (ip), vehicle: saline
  T/C: 150 % of control
dose: 150.0 mg/kg/injection, schedule: Q04DX003 (ip), vehicle: saline
  T/C: 175 % of control
dose: 200.0 mg/kg/injection, schedule: Q04DX002 (ip), vehicle: saline
  T/C: 163 % of control and 176 % of control
dose: 200.0 mg/kg/injection, schedule: Q04DX003 (ip), vehicle: other
  T/C: 189 % of control
dose: 216.0 mg/kg/injection, schedule: Q04DX003 (ip), vehicle: alkali diluted with saline
  T/C: 205 % of control
dose: 256.0 mg/kg/injection, schedule: Q01DX001 (oral), vehicle: other
  T/C: 103 % of control
dose: 256.0 mg/kg/injection, schedule: Q01DX001 (sc), vehicle: other
  T/C: 108 % of control
dose: 256.0 mg/kg/injection, schedule: Q01DX009 (oral), vehicle: other
  T/C: 112 % of control
dose: 256.0 mg/kg/injection, schedule: Q04DX003 (ip), vehicle: Klucel (hydroxypropylcellulose) (HPC)
  T/C: 156 % of control
dose: 256.0 mg/kg/injection, schedule: Q04DX003 (ip), vehicle: other
  T/C: 206 % of control and 208 % of control
dose: 256.0 mg/kg/injection, schedule: Q08DX002 (ip), vehicle: other
  T/C: 174 % of control
dose: 300.0 mg/kg/injection, schedule: Q01DX001 (ip), vehicle: saline
  T/C: 166 % of control
dose: 300.0 mg/kg/injection, schedule: Q04DX003 (ip), vehicle: saline
  T/C: 220 % of control
dose: 400.0 mg/kg/injection, schedule: Q04DX002 (ip), vehicle: saline
  T/C: 163 % of control
dose: 512.0 mg/kg/injection, schedule: Q01DX001 (oral), vehicle: other
  T/C: 99 % of control
dose: 512.0 mg/kg/injection, schedule: Q01DX001 (sc), vehicle: other
  T/C: 107 % of control
dose: 512.0 mg/kg/injection, schedule: Q01DX009 (oral), vehicle: other
  T/C: 112 % of control
